The values that follow come from article PMC7999182, “Interaction of Remdesivir with Clinically Relevant Hepatic Drug Uptake Transporters” (Pharmaceutics, 2021).

One data set has as its target T1, OATP1B1 (Homo sapiens, UniProt Q9Y6L6).
T1 construct: expressed in transfected cells
T1 sequence (Q9Y6L6 1-691): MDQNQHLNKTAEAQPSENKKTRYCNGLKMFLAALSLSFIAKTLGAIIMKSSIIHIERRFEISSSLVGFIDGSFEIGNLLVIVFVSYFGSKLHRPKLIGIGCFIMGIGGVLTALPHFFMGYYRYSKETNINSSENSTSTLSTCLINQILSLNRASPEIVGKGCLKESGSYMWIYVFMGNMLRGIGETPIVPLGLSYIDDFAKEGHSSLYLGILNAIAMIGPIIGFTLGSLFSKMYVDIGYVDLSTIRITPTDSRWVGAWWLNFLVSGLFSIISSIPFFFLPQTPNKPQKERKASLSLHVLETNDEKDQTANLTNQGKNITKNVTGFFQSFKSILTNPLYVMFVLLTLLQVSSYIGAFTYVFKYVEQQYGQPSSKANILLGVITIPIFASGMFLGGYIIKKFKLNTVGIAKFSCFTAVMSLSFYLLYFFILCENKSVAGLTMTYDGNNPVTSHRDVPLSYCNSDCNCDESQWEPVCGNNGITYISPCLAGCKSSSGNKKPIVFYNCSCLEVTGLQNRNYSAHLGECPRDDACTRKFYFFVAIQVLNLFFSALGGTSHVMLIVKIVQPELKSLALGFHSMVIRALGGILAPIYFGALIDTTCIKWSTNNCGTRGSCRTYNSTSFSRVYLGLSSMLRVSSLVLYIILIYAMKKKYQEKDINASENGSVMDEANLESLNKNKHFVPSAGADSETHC
Description: Remdesivir uptake into HEK cells stably expressing OATP1B1 (*1a) vs vector control. The class given is in vitro ADME. The settings on record: 5 µM remdesivir, 10 min. An excerpt:
(§1) Generation, cultivation and characterization of human embryonic kidney (HEK) cells stably expressing OATP1B1 refseq (=OATP1B1*1a), OATP1B1*1b, OATP1B1*5 and OATP1B1*15 [18], OATP1B3 [19], OATP2B1 [13] and OCT1 [20] have been described previously. OATP1B1 cells were cultivated in minimal essential medium (Life Technologies, Paisley, UK) and OATP1B3, OATP2B1 and OCT1 cells were cultivated in Dulbecco’s modified Eagle medium (Sigma, Darmstadt, Germany). Cultivation media were supplemented with 10% fetal calf serum, 100 U/mL penicillin and 100 µg/mL streptomycin. Cells were grown at 37 °C and 5% CO2. Functionality of the cells was confirmed by measuring uptake of prototypic substrates (see Section 2.3 and supplementary material).
Uptake assays were conducted at 37 °C according to previously described methods. For this, cells were seeded in 24-well plates (320,000 cells/well) and cultured for 2 days. Cells were then incubated for a further 24 h in culture medium with 5 mM butyrate (OATP1B3, OATP2B1, OCT1) or 10 mM butyrate (OATP1B1) to increase protein levels of recombinant transporters. Before the uptake experiments, cells were washed with the respective pre-warmed (37 °C) uptake buffer. The compositions of the uptake buffers were as follows: for OATP1B1, OATP1B3, OATP2B1: 142 mM NaCl, 12.5 mM hydroxyethylpiperazine ethanesulfonic acid, 5 mM KCl, 1 mM KH2PO4, 1.5 mM CaCl2, 1.2 mM MgSO4, 5 mM glucose, pH 7.3; for OCT1: 145 mM NaCl, 5 mM hydroxyethylpiperazine ethanesulfonic acid, 3 mM KCl, 1 mM CaCl2, 0.5 mM MgCl2, 5 mM glucose, pH 7.4. Uptake was initiated by replacing this solution with uptake buffer containing different concentrations of remdesivir as indicated. […]
(§2) Remdesivir was determined by UHPLC-MS-MS analysis on an Agilent 1290 infinity UHPLC system coupled to an Agilent 6495B triple quadrupole mass spectrometer (Agilent, Waldbronn, Germany) similar to a recently published method. […]

The target of the next data set is T2, OATP1B3 (Homo sapiens, UniProt Q9NPD5).
T2 construct: expressed in transfected cells
T2 sequence (Q9NPD5 1-702): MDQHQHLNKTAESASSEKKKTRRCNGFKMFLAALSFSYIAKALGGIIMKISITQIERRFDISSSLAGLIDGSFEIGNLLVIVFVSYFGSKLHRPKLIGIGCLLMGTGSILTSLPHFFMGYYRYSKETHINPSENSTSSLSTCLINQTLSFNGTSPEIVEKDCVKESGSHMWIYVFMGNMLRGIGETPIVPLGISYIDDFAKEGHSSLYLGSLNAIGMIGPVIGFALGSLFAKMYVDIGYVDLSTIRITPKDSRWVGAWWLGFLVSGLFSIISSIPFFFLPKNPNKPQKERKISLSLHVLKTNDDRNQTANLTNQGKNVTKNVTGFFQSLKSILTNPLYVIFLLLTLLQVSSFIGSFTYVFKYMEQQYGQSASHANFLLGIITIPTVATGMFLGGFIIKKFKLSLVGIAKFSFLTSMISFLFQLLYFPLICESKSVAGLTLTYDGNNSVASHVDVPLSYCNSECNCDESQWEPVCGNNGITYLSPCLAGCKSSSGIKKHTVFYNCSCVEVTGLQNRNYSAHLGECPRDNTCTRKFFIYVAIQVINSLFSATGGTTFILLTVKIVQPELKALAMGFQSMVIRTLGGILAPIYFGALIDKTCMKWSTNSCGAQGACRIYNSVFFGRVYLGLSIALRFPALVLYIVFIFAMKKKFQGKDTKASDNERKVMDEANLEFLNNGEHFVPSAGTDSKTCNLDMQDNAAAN
In words: Remdesivir uptake into HEK cells stably expressing OATP1B3 vs vector control. The class given is in vitro ADME. To be noted: 5 µM remdesivir, 10 min, transporter-expressing vs control HEK cells.
Source text: as §1
Uptake assays were conducted at 37 °C according to previously described methods. For this, cells were seeded in 24-well plates (320,000 cells/well) and cultured for 2 days. Cells were then incubated for a further 24 h in culture medium with 5 mM butyrate (OATP1B3, OATP2B1, OCT1) or 10 mM butyrate (OATP1B1) to increase protein levels of recombinant transporters. […]
as §2

With `CCC(CC)COC(=O)[C@H](C)N[P@](=O)(OC[C@H]1O[C@@](C#N)(c2ccc3c(N)ncnn23)[C@H](O)[C@@H]1O)Oc1ccccc1` [Remdesivir], at OATP1B1, the “Significance of uptake vs control cells” value was “Statistically significant uptake”. Moreover, the Remdesivir uptake ratio at OATP1B1 (transporter-expressing vs control HEK cells) is 1.3; on OATP1B3, 1.5. Further, at OATP1B1 (OATP1B1*1a cells), the “Accumulation vs vector-transfected control cells” value was “moderately higher”.
